These results are taken from patent publication US20090312373A1, “METHODS FOR THE TREATMENT OF CANCER USING PIPERLONGUMINE AND PIPERLONGUMINE ANALOGS” (The General Hospital Corporation, priority 2008, published 2009).

The test system of data set [1] is normal human breast epithelial cells. In words: DNA damage markers in normal human breast epithelial cells. As to conditions: SP2007 10 μM or 20 μM. It counts as cell-based. From the text: The primary breast epithelial cells obtained from patients undergoing reconstructive plastic surgery.
Data set [2] deals with CDIP. The data set can be described thus: CDIP expression in HCT116 cells. The class given is cell-based, human. As to conditions: 5 μM and 10 μM. The method, then:
(§1) U2OS cells and EJ cells were exposed to piperlongumine (10 μM) and aliquots of the cells were taken at 6 and 12 hours and lysed to determine the level of Twist expression. […] HCT116 cells (p53-wt cells) were exposed to piperlongumine and aliquots of the cells were taken at 6 and 12 hours and lysed to determine the level of CDIP expression. […] U2OS cells (p53-wt cells) and EJ cells (non-functional p53) were exposed to various concentrations of piperlongumine (piper) and aliquots of the cells were lysed to determine the level of survival protein expression.

Data set [3] relates to Twist and N-cadherin. The data set can be described thus: Histological examination of Twist and N-cadherin in MMTV-PyVT mammary tumors. It counts as in vivo, mouse. As to conditions: i.p. total 2.4 mg/kg daily for two weeks. The method, then:
A scheme for piperlongumine (SP2007)-mediated repression of Twist expression and its downstream targets that are involved in tumor invasion/metastasis is presented in FIG. 39A. […] U2OS and EJ cells were treated with SP2007 at two concentrations (10 μM and 20 μM) as well as with DMSO as a solvent control. After 20 hours, cell lysates were extracted and western blotting was performed against Twist, N-cadherin and p120 catenin (Zymed and Sigma Aldrich). […] Female MMTV-PyVT mice at 8-9 weeks age were chosen for the studies. When tumor sizes grew to ˜5-6 mm in diameter, SP2007 or DMSO was administered intraperitoneally (I.P., total 2.4 mg/kg of SP2007) daily for two weeks. After two weeks treatment, mice were sacrificed and mammary tumors excised and processed for histological examination.

Data set [4] has as its system EJ human bladder cancer cell xenografts. The data set can be described thus: EJ human bladder cancer xenograft in nude mice. The class given is in vivo, mouse. As to the method:
We tested piperlongumine in colon tumor, breast, melanoma or bladder tumor xenograft-bearing mice to evaluate the anti-tumor effect of piperlongumine. We examined EJ human bladder cancer cell xenografts (non-functional p53) to evaluate anti-tumor effects. A total of 2×10^6 EJ cells or SW480 cells were implanted subcutaneously on opposite site flanks in each of six nude/nude mice in each group. When tumor masses grew to ˜5-10 mm in diameter, piperlongumine was administered intraperitoneally (28 ug per each intraperitoneal administration, total 1.2 mg/kg) every 48 hours for 12 days (6 times total).
For orientation: In xenograft studies the graft and the host belong to different species.

The test system of data set [5] is MMTV-PyVT mammary tumor. In words: MMTV-PyVT spontaneous mammary tumor mouse model. The class given is in vivo. From the text:
MMTV-PvVT (FVB/N-Tg) transgenic mice develop multifocal mammary tumor (from hyperplasia to metastatic) with a high incidence of metastasis (Mice were obtained from the NCI repository). This mouse model has been widely used for the correlation studies of human cancer (Guy et al., Moll. Cell. Biol. 12: 954-961, 1992). In addition, this onco-mouse model has been used to evaluate the effectiveness of potential drug therapies. Generally, due to aggressiveness of tumor growth and spread in this mouse-model, only a combination of chemo-drugs is effective in tumor growth inhibition. MMTV-PyVT mice were maintained until mammary tumor size reached to 6 mm, and then piperlongumine (2.4 mg/kg) or vehicle (DMSO) was given daily by i.p. for 13 days. Tumor size was measured every 4 days (See FIGS. 31 and 32).
We compared the anti-tumor activity of piperlongumine (SP2007) with taxol, a well known chemo drug, in the MMTV-PyVT tumor mouse model as described above (8 mice per group). When tumor sizes grew to ˜5-6 mm in diameter, SP2007 (2.4 mg/kg/day) or Taxol (Paclitaxel, 10 mg/kg/day) was administered intraperitoneally (I.P.) daily for two weeks. After two weeks treatment, mice were sacrificed, and mammary tumors excised and the tumor sizes measured. […] The size of the grossly dissected tumors was measured using the formula: mean diameter=(A+B)/2.

Data set [6] has as its system survival proteins (Bc12, Survivin, XAIP). The data set can be described thus: Exon gene array and Western blot of survival proteins in U2OS and EJ cells. The class given is cell-based, human. As to conditions: variety of concentrations. As to the method: Downstream target genes of piperlongumine (CT-007) were identified using an human exon gene array analysis of U2OS and EJ cancer cell lines (FIG. 12). In addition, the results from the gene array analysis were confirmed by Western blot (FIG. 13; See also Example 12 below).
as §1
Background: A western blot detects proteins with antibodies after separation by electrophoresis.

Data set [7] deals with human cancer cell lines. The data set can be described thus: Cell growth inhibition and cell death/apoptosis in a panel of human cancer cell lines. It counts as cell-based. From the text:
We evaluated the ability of piperlongumine to induce apoptosis in a panel of human cancer cells (>40 human cancer cell lines) including cell lines with both wt and mutant p53 status, including non-functional mutants (See Table 1).

[8] abbreviates: 2.4 mg/kg daily i.p. for 13 days.

Each structure is given as a SMILES string. “Also recorded” adds a separate entry of the source.

Regarding `COc1cc(/C=C/C(=O)N2CCC=CC2=O)cc(OC)c1OC` [piperlongumine, N-(3,4,5,-trimethoxycinnamoyl)-Δ^3-piperidine-2-one], the “phosphorylated gamma-H2AX, p53 and p21” value in data set [1] is on record as “does not affect”. In addition, the CDIP expression result in data set [2] is reported as “induces the expression of CDIP”. Also, in data set [3], the “N-cadherin expression in mammary tumors” value is “inhibits N-cadherin expression” and the “Twist expression in mammary tumors” value is listed as “inhibits Twist expression”. In data set [4] (28 ug i.p. every 48 hours for 12 days (total 1.2 mg/kg), compared to DMSO), the anti-tumor effect entry was “significant anti-tumor effects”. Moreover, in data set [4] (tumor mice), the “blood vessel formation (angiogenesis) in the tumors” value was “strongly inhibited” and the “expression of apoptosis genes (p21, PUMA, Caspase 3) in tumor-mice” value is “enhanced”. For the same compound, in data set [5] (setting [8]), the “multiple tumor growth in spontaneous tumor model” value is given as “inhibits multiple tumor growth” and the “tumor growth in spontaneous mouse model of breast cancer” value is reported as “inhibits tumor growth”. Also, the “anti-tumor effect (mammary tumor size)” value in data set [5] (2.4 mg/kg/day i.p. daily for two weeks, compared to DMSO) is given as “Significant anti-tumor effects”. For the same compound, in data set [5] (SP2007 2.4 mg/kg/day i.p. for two weeks), the “health of mice during treatment” value was “remained healthy throughout the treatment time”. Also, in data set [5] (SP2007 2.4 mg/kg/day or Taxol 10 mg/kg/day i.p. for two weeks), the secondary tumors result is given as “No secondary tumors were observed”. In data set [6], the “levels of expression of survival proteins” value is “significantly repressed; also recorded: inhibits the expression of survival proteins”. Further, the “sub-G1 apoptotic population of cells” value in data set [7] (HCT116 cells) was “increased”. Further, the “potencies for tumor cell growth inhibition and cell death/apoptosis” value in data set [7] (various human cancer cells, regardless of p53 status) is 2.5 to 20 µM.
